Experiment [1] relates to H1650 cells. As to the kind of experiment: In vitro activity in H1650 cell line (3D, CTG 120h), Example 12. In kind it is cell-based. As to conditions: Homo sapiens, NCI-H1650, 120 h, H1650 3D. How it is done: (§1) H1650 cells were cultivated in RPMI supplemented with 10% heat inactivated fetal bovine serum, penicillin (100 IU/ml), streptomycin (100 μg/ml) and L-glutamine (2 mM). Cells were cultured at 37° C. in a humidified atmosphere containing 5% CO2. Cells were seeded in 96 microwell round bottom plates (96 microwell low attachment plates, Costar reference 7007; 75 μL/well of 125000 cells/mL) and exposed to the mAbs or ADCs for 120h (serially diluted; 9 concentrations each, duplicates). Effects of mAbs or ADCs on cell viability were assessed after 5 days of incubation at 37° C./5% CO2 by quantification of cellular ATP levels using CellTiter-Glo reagent (Promega Ref: G7571) at 75 μL reagent/well. All the conditions were tested in duplicates. Luminescence was quantified on a multipurpose plate reader. IC50s were calculated using standard four-parametric curve fitting. IC50 is defined as the compound concentration at which the CTG signal is reduced to 50% of that measured for the control. Two independent experiments were performed (N1 and N2).
Plating Conditions: EBC-1: 75 μL/well of 60000 cells/mL for 120h in 96-well plate SNU-5: 75 μL/well of 60000 cells/mL for 120h in 96-well plate H1650 (ATOC): 75 μL/well of 125000 cells/mL for 120h in 96 microwell round bottom plates

For experiment [2], the system named is H1650 cells. As to the kind of experiment: In vitro activity in H1650 cell line (3D, CTG 120h), Example 6. Format: cell-based. Conditions: Homo sapiens, NCI-H1650, 120 h, H1650 3D. The protocol: as §1, with “CellTiterGlo” for “CellTiter-Glo reagent (Promega Ref: G7571)”, “N2). IC50 data of each experiment and the arithmetic mean is shown in Table 14 for all the antibodies and ADCs tested. NT=not tested; ND=not determined.” for “N2).”

The test system of experiment [3] is SNU-5. As to the kind of experiment: In vitro activity in SNU-5 cell line (CTG 120h), Example 12. In kind it is cell-based. Conditions: Homo sapiens, SNU-5, 120 h, SNU5, CTG 120 h. The protocol: EBC-1 and SNU-5 cell lines were cultured in the media described above at 37° C. in a humidified atmosphere containing 5% CO2. […] Effects of mAbs or ADCs on cell viability were assessed after 5 days of incubation at 37° C./5% CO2 by quantification of cellular ATP levels using CellTiter-Glo reagent (Promega Ref: G7571) at 75 μL reagent/well. All the conditions were tested in triplicates. Luminescence was quantified on a multipurpose plate reader. IC50s were calculated using standard four-parametric curve fitting. […] Two independent experiments were performed (N1 and N2).

Experiment [4] deals with SNU-5. As to the kind of experiment: In vitro activity in SNU-5 cell line (CTG 120h), Example 6. Format: cell-based. As to conditions: Homo sapiens, SNU-5, 120 h, SNU-5, CTG 120 h. The protocol:
(§2) Cell lines were cultured in the media described above at 37° C. in a humidified atmosphere containing 5% CO2. Cells were seeded in 96 well clear bottom plates (96 well clear-bottom, white, Corning reference 3903) and exposed to the mAbs or ADCs for 120h (serially diluted; 9 concentrations each, triplicates). Effects of mAbs or ADCs on cell viability were assessed after 5 days of incubation at 37° C./5% CO2 by quantification of cellular ATP levels using CellTiter-Glo reagent (Promega Ref: G7571) at 75 μL reagent/well. All the conditions were tested in triplicates. Luminescence was quantified on a multipurpose plate reader. IC50s were calculated using standard four-parametric curve fitting. IC50 is defined as the compound concentration at which the CTG signal is reduced to 50% of that measured for the control. Two independent experiments were performed (N1 and N2). IC50 data of each experiment and the arithmetic mean is shown in Table 14 for all the antibodies and ADCs tested.

The test system of the next experiment is EBC-1. Description: In vitro activity in EBC-1 cell line (CTG 120h), Example 6. In kind it is cell-based. Conditions: Homo sapiens, EBC-1, 120 h, EBC-1, CTG 120 h. The protocol:
as §2

In another experiment the test system is LOUNH-91. As to the kind of experiment: In vitro activity in LOUNH-91 cell line (CTG 120h), Example 6. In kind it is cell-based. As to conditions: LOU-NH91, 120 h, LOUNH91, CTG 120 h. The protocol:
as §2

For experiment [5], the system named is HCC78 lung cancer cell line. Description: HCC78 viability, single agents or 1:1 combination with paclitaxel (CTG 120h), Example 13. Conditions: Homo sapiens, HCC78, 120 h. In kind it is cell-based. How it is done:
HCC78 lung cancer cell line was cultured in the media described above at 37° C. in a humidified atmosphere containing 5% CO2. […] When in 1:1 combination, both paclitaxel and the mAb or ADC were serially diluted (9 concentrations each, triplicates). Effect on cell viability was assessed after 5 days of incubation at 37° C./5% CO2 by quantification of cellular ATP levels using CellTiter-Glo reagent (Promega Ref: G7571) at 75 μL reagent/well. All the conditions were tested in triplicates. Luminescence was quantified on a multipurpose plate reader. IC50s were calculated using standard four-parametric curve fitting. […] Two independent experiments were performed (N1 and N2).

The test system of experiment [6] is pancreatic cancer cell lines. Description: Pancreatic cancer cell line panel of Example 10 (CTG 120h). As to conditions: pancreatic cancer cell lines of Table 16, single agents. Format: cell-based.
Protocol: Cell lines were cultured in the media described above at 37° C. in a humidified atmosphere containing 5% CO2. […] When in 1:1 combination, both the combining partner (Paclitaxel, Trametinib or Gemcitabine) and the mAb or ADC were serially diluted (9 concentrations each, triplicates). Effect on cell viability was assessed after 5 days of incubation at 37° C./5% CO2 by quantification of cellular ATP levels using CellTiter-Glo reagent (Promega Ref: G7571) at 75 μL reagent/well. All the conditions were tested in triplicates. Luminescence was quantified on a multipurpose plate reader. IC50s were calculated using standard four-parametric curve fitting. […] Two independent experiments were performed (N1 and N2).
A further experiment relates to H1650 xenografts. As to the kind of experiment: In vivo efficacy alone or with paclitaxel in Met non amplified NCI-H1650 lung adenocarcinoma human cell model, Example 15. On the set-up: species or system SCID mice. As to conditions: paclitaxel 12.5 mg/kg IV at day 1, 8 and 15, single agent.

Each structure is given as a SMILES string.

Protocol for H1650 xenografts: Below are the procedures for determining the in vivo therapeutic effect of a Bcl-xL ADC targeting the Met protein as a single agent or in combination with paclitaxel. Their activities were compared to the corresponding naked anti-Met mAb or Ab G-L42C-P25 (non-targeting ADC) formulated in Phosphate-Buffered Saline (PBS) in a Met non amplified NCI-H1650 lung adenocarcinoma human cell line after intravenous (IV) administration.
NCI-H1650 cells, obtained from ATCC, were cultured in RPMI supplemented with 10% SBS, 1% Penicillin-Streptomycin and 1% HEPES. Cells were resuspended in 50% Matrigel® (Corning®) and 0.1 ml containing 10×10^6 cells were subcutaneously inoculated into the right flank of female SCID mice, provided by Charles River.
Mice body weight was monitored 3 times a week and tumor size measured using electronic calipers. Tumor volume was estimated by measuring the minimum and maximum tumor diameters using the formula: (minimum diameter)2(maximum diameter)/2.
With DTV (Delta Tumor Volume) at Dx, calculated being TV at Dx−TV at Randomization.
Mice were sacrificed at the first measurement for which tumor volume exceeded 2000 mm3 or at the first signs of animal health deterioration. […] SCID mice were maintained according to institutional guidelines.

For orientation: IC50 means the concentration that gives 50% inhibition. As to `Cc1c(Nc2nc3ccccc3s2)nnc2c1CCCN2c1ccc(-c2cnn(C[C@]34C[C@]5(C)C[C@](C)(C3)C[C@@](OCCNCCCO)(C5)C4)c2C)c(C(=O)O)n1` [P25, 6-[3-(1,3-benzothiazol-2-ylamino)-4-methyl-6,7-dihydro-5H-pyrido[2,3-c]pyridazin-8-yl]-3-[1-[[3-[2-(3-hydroxypropylamino)ethoxy]-5,7-dimethyl-1-adamantyl]methyl]-5-methyl-pyrazol-4-yl]pyridine-2-carboxylic acid], the IC50 came to 8.28 nM in the experiment with H1650 cells [1] (N1); 5.9 nM with H1650 cells [1] (N2); 7.09 nM in the experiment on H1650 cells [1] (mean); 1.57 nM in the experiment with H1650 cells [2] (mean); 1.47 nM in the experiment with H1650 cells [2] (n = 1); 1.66 nM in the experiment on H1650 cells [2] (n = 2). For the same molecule, the 50% inhibitory concentration (IC50) in the experiment on SNU-5 [3] (Mean) was 5510 nM; with SNU-5 [3] (N1), 5510 nM; in the experiment with SNU-5 [3] (N2), more than 30000 nM; with SNU-5 [4] (mean), 10700 nM; in the experiment with SNU-5 [4] (n = 1) it was 10600 nM; in the experiment with SNU-5 [4] (n = 2), 10800 nM. The IC50 amounted to 43.4 nM in the experiment on EBC-1 (mean); 20.8 nM with EBC-1 (n = 1); 65.9 nM with EBC-1 (n = 2); 7.07 nM with LOUNH-91 (mean); 6.43 nM in the experiment on LOUNH-91 (n = 1); 7.71 nM with LOUNH-91 (n = 2).

As to `CC(=O)O[C@H]1C(=O)[C@@]2(C)[C@H]([C@H](OC(=O)c3ccccc3)[C@]3(O)C[C@H](OC(=O)[C@H](O)[C@@H](NC(=O)c4ccccc4)c4ccccc4)C(C)=C1C3(C)C)[C@]1(OC(C)=O)CO[C@@H]1C[C@@H]2O` [Paclitaxel, paclitaxel], the IC50 in experiment [5] (Mean) came out at 6.44 nM; in experiment [5] (N1), 6.04 nM; in experiment [5] (N2) it was 6.84 nM. Moreover, in experiment [6], the “effect on the viability” value is “induced dose dependent decrease in cell viability with measurable IC50 for most of the cell lines”. The “TGI % (d 18)” value in the experiment on H1650 xenografts is reported as −14.4%.

The values are drawn from US20250339547A1, “MET BCL-XL INHIBITOR ANTIBODY-DRUG CONJUGATES AND METHODS OF USE THEREOF” (Novartis AG, priority 2022, published 2025).
